The values that follow are results of earlier work, collected in patent US12465592B2, “Structured encapsulated silicon-containing particles” (SISAF LIMITED, priority 2019, dated 2025).

By aqueous solubility is commonly meant the concentration that dissolves in the medium under given conditions.

For the molecule `Clc1ccc(COC(Cn2ccnc2)c2ccc(Cl)cc2Cl)c(Cl)c1` (stereo not shown) [Miconazole], the aqueous solubility was less than 1 µg/mL.
